Measured values reported in patent US12594279B2, “Composition for preventing or treating TNF-α-related disease, comprising hydroflumethiazide as active ingredient” (SK CHEMICALS CO., LTD., priority 2020, dated 2026).
Structures can show the parent of a compound that is named as a salt.

Tests used:
[1] = test system: rheumatoid arthritis DBA-1J mouse model; experiment: Histopathological quantification of ankle regions (H&E, safranin-O) in rheumatoid arthritis DBA-1J mouse model; assay type: in vivo
Method: (§1) DBA-1J mice were purchased from Central Lab. Animal Inc. Bovine Type II collagen (2 mg/mL) was emulsified in 4 mg/mL of Complete Freund's adjuvant at 1:1, and then injected subcutaneously to the DBA-1J mice at the base of the tail with 100 μL/head to induce arthritis first. Then, after 3 weeks, Bovine Type II collagen (2 mg/mL) was emulsified in Incomplete Freund's adjuvant at 1:1 and injected subcutaneously to the DBA-1J mice at the base of the tail with 100 μL/head to prepare rheumatoid arthritis animal models.
(§2) As a normal control group, 0.5% methyl cellulose (MC) was orally administered to healthy DBA-1J mice, and as a comparative control group, 0.5% MC was orally administered to the prepared rheumatoid arthritis mouse models, daily for 2 weeks. Methotrexate (MTX, 2 mg/kg/2 day), hydroxychloroquine (HCQ, 80 mg/kg/day), which are commercially available therapeutic agents for rheumatoid arthritis, and hydroflumethiazide (5 mg/kg/day or 20 mg/kg/day) were orally administered daily for 2 weeks to the prepared rheumatoid arthritis mouse models, respectively.
On day 14 of administration, the mice in each of the control groups and experimental groups were sacrificed, and then joint staining photographs were taken through the following process. The ankle areas of the sacrificed mice were subjected to general tissue treatment processes such as demineralization, trimming, dehydration, paraffin embedding, and microtome cutting to prepare specimens for histopathological examination. Then, Hematoxylin & Eosin (H&E) and safranin-O stainings were performed, and histopathological changes were observed using an optical microscope (FIG. 5).
In addition, the degrees of synovium proliferation, bone destruction, and cartilage damage were quantified, and the results are shown in Table 5 below.

[2] = test system: rheumatoid arthritis DBA-1J mouse model; experiment: Arthritis index in collagen-induced rheumatoid arthritis DBA-1J mouse model; assay type: in vivo
Method: as §1, §2
[…] Reference: 0, No edema or swelling: 1, Mild edema and redness confined to the joint: 2, Mild edema and redness from the joint to carpal bone and tarsal bone: 3, Moderate edema and redness from the joint to carpal bone and tarsal bone: 4, Overall edema and redness and joint stiffness: 5. In the arthritis index, the highest score was set to 16 points by summing up the four limb scores. In addition, the size of the lower extremity edema was measured using a micrometer on day 14 after each drug was administered in each of the control groups and experimental groups.

[3] = test system: rheumatoid arthritis DBA-1J mouse model; experiment: Size of lower extremity edema  in rheumatoid arthritis DBA-1J mouse model; assay type: in vivo; set-up: Size of lower extremity edema, Right Feet / Size of lower extremity edema, Left Feet: unit not given here
Method: as §1, §2
Arthritis indices were measured on day 9 and 14 after the administration of each drug in each of the control groups and experimental groups on the basis of the following criteria. Reference: 0, No edema or swelling: 1, Mild edema and redness confined to the joint: 2, Mild edema and redness from the joint to carpal bone and tarsal bone: 3, Moderate edema and redness from the joint to carpal bone and tarsal bone: 4, Overall edema and redness and joint stiffness: 5. In the arthritis index, the highest score was set to 16 points by summing up the four limb scores. […]

[4] = test system: RAW 264.7; experiment: MTT assay cell viability; assay type: cell-based; settings: for Cytotoxicity (MTT assay): concentrations of Table 1
[5] = test system: TNF-α; experiment: TNF-α expression level by ELISA in LPS-induced RAW 264.7 cells; assay type: cell-based; settings: for TNF-α: LPS 10 ng/ml-induced RAW 264.7, ELISA
Method: In addition, in order to confirm an effect of inhibiting the TNF-α expression of hydroflumethiazide in induced inflammatory cells, an experiment was performed as follows. RAW 264.7 cells were treated with DMSO at a concentration of 0.01% (v/v) as an untreated control group, and the cells were treated with LPS at a concentration of 10 ng/ml as a control group to induce an inflammatory response. […] Then, the expression level of TNF-α was measured and compared through the ELISA method in the groups treated with respective drugs.

[6] = test system: rheumatoid arthritis DBA-1J mouse model; experiment: Histopathological quantification of ankle regions (H&E, safranin-O) in rheumatoid arthritis DBA-1J mouse model; assay type: in vivo; settings: oral, FIG. 6
[7] = Mus musculus, RAW264.7, TNF-α, LPS-induced RAW 264.7, 20 uM

Structure (SMILES): CCN(CCO)CCCC(C)Nc1ccnc2cc(Cl)ccc12 (stereo not drawn) [HCQ, hydroxychloroquine]
- Bone destruction ([1]; day 14, G4, 80 mg/kg/day oral): 2.3 ± 0.5
- Cartilage damage ([1]; day 14, G4, 80 mg/kg/day oral): 2 ± 0.6
- Synovium proliferation ([1]; day 14, G4, 80 mg/kg/day oral): 3 ± 0.0
- Total (synovium proliferation, cartilage damage, bone destruction) ([1]; day 14, G4, 80 mg/kg/day oral): 7.3 ± 1.0
- Arthritis index ([2]; Day 0, G4, 80 mg/kg/day oral): 2.3 ± 1.4
- Arthritis index ([2]; Day 2, G4, 80 mg/kg/day oral): 4.7 ± 1.2
- Arthritis index ([2]; Day 4, G4, 80 mg/kg/day oral): 6 ± 1.3
- Arthritis index ([2]; Day 7, G4, 80 mg/kg/day oral): 7 ± 1.3
- Arthritis index ([2]; Day 9, G4, 80 mg/kg/day oral): 7.5 ± 1.2
- Arthritis index ([2]; Day 11, G4, 80 mg/kg/day oral): 7.8 ± 1.2
- Arthritis index ([2]; Day 14, G4, 80 mg/kg/day oral): 8.5 ± 1.5
- Size of lower extremity edema, Left Feet ([3]; Day 0, G4, 80 mg/kg/day oral): 0.12 ± 0.02
- Size of lower extremity edema, Right Feet ([3]; Day 0, G4, 80 mg/kg/day oral): 0.11 ± 0.02
- Size of lower extremity edema, Left Feet ([3]; Day 14, G4, 80 mg/kg/day oral): 0.16 ± 0.04
- Size of lower extremity edema, Right Feet ([3]; Day 14, G4, 80 mg/kg/day oral): 0.15 ± 0.03

Structure (SMILES): NS(=O)(=O)c1cc2c(cc1C(F)(F)F)NCNS2(=O)=O [Hydroflumethiazide, hydroflumethiazide]
- Bone destruction ([1]; day 14, G5, 5 mg/kg/day oral): 1.8 ± 1.0
- Cartilage damage ([1]; day 14, G5, 5 mg/kg/day oral): 2 ± 0.9
- Synovium proliferation ([1]; day 14, G5, 5 mg/kg/day oral): 3 ± 0.0
- Total (synovium proliferation, cartilage damage, bone destruction) ([1]; day 14, G5, 5 mg/kg/day oral): 6.8 ± 1.8
- Bone destruction ([1]; day 14, G6, 20 mg/kg/day oral): 2.5 ± 0.5 ^
- Cartilage damage ([1]; day 14, G6, 20 mg/kg/day oral): 1.7 ± 0.8
- Synovium proliferation ([1]; day 14, G6, 20 mg/kg/day oral): 2.2 ± 1.2
- Total (synovium proliferation, cartilage damage, bone destruction) ([1]; day 14, G6, 20 mg/kg/day oral): 6.3 ± 1.5
- Cytotoxicity (MTT assay) [4]: cytotoxicity was not exhibited
- Viability ([4]; treatment concentration 0.1 uM): 106.35%
- Viability ([4]; treatment concentration 1 uM): 101.82%
- Viability ([4]; treatment concentration 10 uM): 105.73%
- Viability ([4]; treatment concentration 20 uM): 101.11%
- TNF-α ([5]; 0.1 uM): 1466.48 pg/mL
- TNF-α ([5]; 1 uM): 1289.62 pg/mL
- TNF-α ([5]; 10 uM): 837.44 pg/mL
- TNF-α ([5]; 20 uM): 625.65 pg/mL
- inhibition at 0.1 µM ([5]; Mus musculus, RAW264.7, TNF-α, LPS-induced RAW 264.7, 0.1 uM): 20.8%
- inhibition at 1 µM ([5]; Mus musculus, RAW264.7, TNF-α, LPS-induced RAW 264.7, 1 uM): 30.4%
- inhibition at 10 µM ([5]; Mus musculus, RAW264.7, TNF-α, LPS-induced RAW 264.7, 10 uM): 54.8%
- inhibition at 20 µM [5, 7]: 66.2%
- Decrease of expression level of TNF-α ([5]; inflammatory response-induced RAW 264.7, at least 0.1 μM): at least 20%
- Expression level of TNF-α compared to the group treated with PS1145 ([5]; inflammatory response-induced RAW 264.7, at least 1 μM): further decreased compared to the group treated with PS1145
- Decrease of expression of TNF-α ([5]; inflammatory response-induced RAW 264.7, at least 10 μM): at least 50%
- Anti-arthritic effect compared to HCQ [6]: superior to HCQ
- Arthritis index compared to the MTX-administered group ([2]; 20 mg/kg/day, day 14): decreased at a similar level to the MTX-administered group
- Arthritis index ([2]; Day 0, G5, 5 mg/kg/day oral): 2.3 ± 1
- Arthritis index ([2]; Day 0, G6, 20 mg/kg/day oral): 2.3 ± 1
- Arthritis index ([2]; Day 2, G5, 5 mg/kg/day oral): 4.2 ± 1.6
- Arthritis index ([2]; Day 2, G6, 20 mg/kg/day oral): 4 ± 1.7
- Arthritis index ([2]; Day 4, G5, 5 mg/kg/day oral): 5.8 ± 1.8
- Arthritis index ([2]; Day 4, G6, 20 mg/kg/day oral): 5 ± 1.4
- Arthritis index ([2]; Day 7, G5, 5 mg/kg/day oral): 6 ± 2.1
- Arthritis index ([2]; Day 7, G6, 20 mg/kg/day oral): 5.7 ± 1.5
- Arthritis index ([2]; Day 9, G5, 5 mg/kg/day oral): 6.7 ± 2.0
- Arthritis index ([2]; Day 9, G6, 20 mg/kg/day oral): 6.2 ± 1.7
- Arthritis index ([2]; Day 11, G5, 5 mg/kg/day oral): 7.2 ± 1.7
- Arthritis index ([2]; Day 11, G6, 20 mg/kg/day oral): 6.8 ± 1.6
- Arthritis index ([2]; Day 14, G5, 5 mg/kg/day oral): 8 ± 2.5
- Arthritis index ([2]; Day 14, G6, 20 mg/kg/day oral): 7.3 ± 2.3
- Arthritis index compared to the HCQ-administered group ([2]; from day 9 of the administration): significantly decreased
- Size of the lower extremity edema compared to the MTX-administered group ([3]; 20 mg/kg/day, day 14): decreased at a similar level to the MTX-administered group
- Size of lower extremity edema, Left Feet ([3]; Day 0, G5, 5 mg/kg/day oral): 0.09 ± 0.01
- Size of lower extremity edema, Right Feet ([3]; Day 0, G5, 5 mg/kg/day oral): 0.11 ± 0.03
- Size of lower extremity edema, Left Feet ([3]; Day 0, G6, 20 mg/kg/day oral): 0.11 ± 0.03
- Size of lower extremity edema, Right Feet ([3]; Day 0, G6, 20 mg/kg/day oral): 0.1 ± 0.01
- Size of lower extremity edema, Left Feet ([3]; Day 14, G5, 5 mg/kg/day oral): 0.14 ± 0.02
- Size of lower extremity edema, Right Feet ([3]; Day 14, G5, 5 mg/kg/day oral): 0.15 ± 0.04
- Size of lower extremity edema, Left Feet ([3]; Day 14, G6, 20 mg/kg/day oral): 0.15 ± 0.03
- Size of lower extremity edema, Right Feet ([3]; Day 14, G6, 20 mg/kg/day oral): 0.15 ± 0.03

Structure (SMILES): CN(Cc1cnc2nc(N)nc(N)c2n1)c1ccc(C(=O)N[C@@H](CCC(=O)O)C(=O)O)cc1 [MTX, Methotrexate]
- Bone destruction ([1]; day 14, G3, 2 mg/kg/2 day oral): 1.5 ± 0.8
- Cartilage damage ([1]; day 14, G3, 2 mg/kg/2 day oral): 1.3 ± 0.5
- Synovium proliferation ([1]; day 14, G3, 2 mg/kg/2 day oral): 2.5 ± 0.5
- Total (synovium proliferation, cartilage damage, bone destruction) ([1]; day 14, G3, 2 mg/kg/2 day oral): 5.3 ± 1.5
- Arthritis index ([2]; Day 0, G3, 2 mg/kg/2 day oral): 2.3 ± 1.6
- Arthritis index ([2]; Day 2, G3, 2 mg/kg/2 day oral): 4.2 ± 1.0
- Arthritis index ([2]; Day 4, G3, 2 mg/kg/2 day oral): 5 ± 1.3
- Arthritis index ([2]; Day 7, G3, 2 mg/kg/2 day oral): 5.8 ± 1.3
- Arthritis index ([2]; Day 9, G3, 2 mg/kg/2 day oral): 6.3 ± 1.4
- Arthritis index ([2]; Day 11, G3, 2 mg/kg/2 day oral): 6.7 ± 1.5
- Arthritis index ([2]; Day 14, G3, 2 mg/kg/2 day oral): 7 ± 1.3
- Size of lower extremity edema, Left Feet ([3]; Day 0, G3, 2 mg/kg/2 day oral): 0.11 ± 0.02
- Size of lower extremity edema, Right Feet ([3]; Day 0, G3, 2 mg/kg/2 day oral): 0.1 ± 0.02
- Size of lower extremity edema, Left Feet ([3]; Day 14, G3, 2 mg/kg/2 day oral): 0.12 ± 0.02
- Size of lower extremity edema, Right Feet ([3]; Day 14, G3, 2 mg/kg/2 day oral): 0.15 ± 0.03

Structure (SMILES): O=C(Nc1cc(Cl)cc2c1[nH]c1cnccc12)c1cccnc1 [PS1145, N-(6-chloro-9H-pyrido[3,4-b]indol-8-yl)-3-pyridinecarboxamide dihydrochloride]
- Cytotoxicity (MTT assay) [4]: cytotoxicity was not exhibited
- Viability ([4]; treatment concentration 20 uM): 99.16%
- TNF-α ([5]; 20 uM): 1402.08 pg/mL
- inhibition at 20 µM [5, 7]: 24.3%
